We go through 3 molecules from paper PMC10492782, “Exploiting the aggregation propensity of beta-lactamases to design inhibitors that induce enzyme misfolding” (Nature Communications, 2023).

“And” between values parts separate entries of the source, which are not always exact repeats. Equal values may be shown once. Where a name gives a salt, the structure may show the parent alone.

Data set [1] deals with E. coli strain UZ_TEM104. Description: microbe, parasite or virus in culture. It counts as cell-based, Escherichia coli.
In data set [2] the target is T1, SHV-11 (Klebsiella pneumoniae, UniProt P0AD64, L31Q).
T1 construct: His-tag (N); TEV cleavage site (N); made in house; host or cells: E. coli BL21 (DE3)
Description: Thermal denaturation, Right-Angle Light Scattering (aggregation). It counts as biochemical. The conditions noted are these: excess of tazobactam; less marked than for TEM-1.

Data set [3] has as its system uro-pathogenic E. coli strain (UPEC strain blaTEM-1). Description: MIC of ampicillin with or without 32 µg/mL TEM3.2 or tazobactam. Format: cell-based, Escherichia coli. The method, then:
(§1) We also performed a tolerability study using a dose escalation method by administering the peptide at 2, 5, 10, 15, and 20 mg/kg via different parenteral routes: intravenous (IV), intraperitoneal (IP), and subcutaneous (SC) in female C57BL/6JAX mice, aged 8–10 weeks (Suppl Table 4). […] Vehicle alone (0.9% NaCl) was also administered (IV). After 24 h the animals were sacrificed and the bacterial load in the bladder, kidney, and ureter was quantified by determining the number of colony-forming units (CFU) per mL of tissue extract (Fig. 7E–G).
Determination of MIC values was performed using the broth microdilution method according to the EUCAST guideline, which was performed in 96-well polystyrene flat-bottom microtiter plates (BD Biosciences). Briefly, a single colony was inoculated into 5 mL Difco™ Mueller–Hinton Broth (BD Biosciences Ref 275730) and grown to the end-exponential growth phase in a shaking incubator at 37 °C. Cultures were subsequently diluted to a MacFarland (0.5 optical density) to reach 10^6 CFU/mL in fresh MHB medium. 50 µl of different concentrations of peptides ranging from 128 to 2 µg/mL were serially diluted to the sterile 96-well plate in MHB. 50 µL of the diluted bacteria in MHB were next pipetted into 96-well plates to reach the final volume of 100 µL. The bacteria grown with the maximum concentration of carrier and medium were considered positive and negative controls, respectively. The plates were statically incubated overnight at 37 °C to allow bacterial growth. OD was measured at 590 nm using a multipurpose ultraviolet–visible plate reader, and the absorbance of the bacterial growth was measured using an absorbance reader.

Data set [4] has as its target T2, TEM-1 (Escherichia coli, UniProt P62593). Format: biochemical, E. coli. On the set-up: His-tag (N); TEV cleavage site (N); made in house; host or cells: E. coli BL21 (DE3).
Description: Then, we performed a thermal denaturation whilst simultaneously monitoring the intrinsic fluorescence as a measure of the folding status of the molecule (Fig. 1D and Supplementary Fig. 2D) and the static light scattering as a measure of aggregation (Fig. 1E and Supplementary Fig. 2E).
D Heat denaturation of TEM-1 monitored by intrinsic fluorescence plotted as the BaryCentric Mean (BCM) of the fluorescence emission spectrum in the presence (red) and absence (blue) of tazobactam. […] E Temperature-dependent evolution of the Right-Angle Light Scattering (RALS) intensity measured simultaneously with the data in D to monitor protein aggregation. […] F Same data as in E, but showing a dose-titration of the beta-lactamase inhibitor tazobactam.
Data set [5] deals with T2, TEM-1. Format: biochemical.
Description: To satisfy the reviewer’s comment, we have performed urea denaturation in the presence
of a molar excess of tazobactam and compared it to the condition without.
two-state denaturation of the protein with a stable intermediate. The difference between
The plots show a single repeat.
Table 1: Results from fitting 3 replicates
G1 (kcal/mol) G2 (kcal/mol) Sum
The subject of data set [6] is uro-pathogenic E. coli strain (UPEC strain blaTEM-1). Description: Urinary tract infection model, bacterial load in bladder, kidney, ureter. It counts as in vivo, female C57BL/6JAX mice. Also on record: bacterial load, Ureters / bacterial load, Bladder / bacterial load, Kindey: unit: CFU per mL of tissue extract. As for the experimental part: Fig. 7 Evaluation of in vivo use of peptides that induce the aggregation of TEM beta-lactamase. A Lysis of human erythrocytes (hemolysis) was assessed in the presence of the indicated concentrations of TEM3.2 for 2 h at 37 °C, and normalized to the value obtained with 1% of the detergent triton. […] B Cell viability using the CellTiter Blue assay of HeLa cells treated for 24 h with the indicated concentrations TEM 3.2 at 37 °C. […] DAPI (4’,6-diamidino-2-phenylindole) is blue, while CellMask is red. D Experimental workflow of the in vivo model used in this study. E–G Bacterial load of indicated organs of female C57BL/6JAX mice with a urinary tract infection with E. coli strain UZ_TEM104, treated with 30 mg/kg penicillin (oral) as well 10 mg/kg tazobactam (oral) or 10 mg/kg TEM3.2 via the indicated treatment route. IV intravenous, IP intraperitoneal, SC subcutaneously. The data shown is from a single experiment with 12 animals for each group. The result for each animal is shown as a dot. […] The statistically significant differences were determined using ANOVA, followed by Dunnett’s multiple comparison test. […] Source data are provided as a Source Data file.
as §1
To test the efficacy of the peptides, a urinary tract infection model was performed as described previously. Briefly, female C57BL/6Jax mice female mice were deprived of water for at least 1 h. Then, they were anesthetized by IP administration of the mixture of ketamine (Nimatek)/xylazine (XYL-M 2% BE-V170581). The bladder of the mouse was massaged with fingers and pushed down gently to expel the remaining urine. Mice were slowly inoculated urethrally with 50 µL of a bacterial suspension slowly over 5 s to avoid vesicoureteral reflux (10^8 CFU/ mouse) using a sterile catheter (pediatric intravenous-access cannula (GS391350)). The catheter was removed directly after inoculation. After surgery, the animals were visually monitored for full recovery. After 1 h post inoculation, all mice received Ampicillin (30 mg/kg_PO-orally) and at the same time 3 groups of animals received the peptides via different administration routes (10 mg/kg_IV—intravenous; IP—intraperitoneal or SC—sub-cutaneous) and the positive control groups received tazobactam (10 mg/kg, PO). The negative control groups received vehicle or saline (IV administration). 2 h post inoculation, all mice received a second injection with the same concentration of each treatment as explained above. Twenty-four hours post-infection, mice were sacrificed and organs (kidney, bladder, ureter) were washed with PBS and were homogenized (Thermo Savant FastPrep FP120 Homogenizer/24 s). The homogenized tissues were serially diluted and cultured on blood agar plates. The plates were incubated overnight at 37 °C, and the number of bacteria was measured by CFU value.

Data set [7] deals with OXA-48. The conditions noted are these: ampicillin as substrate; cited from earlier work. The source says:
(§2) Abbreviations: S, susceptible; I, intermediate; R, resistant.

In data set [8] the test system is VIM-1. To be noted: ampicillin as substrate; cited from earlier work.
Text: as §2

Data set [9] concerns TEM-1. The conditions noted are these: ampicillin as substrate; cited from earlier work.
For data set [10], the system named is E. coli TEM-16. Description: VITEK 2 AST antimicrobial susceptibility testing. It counts as cell-based, Escherichia coli. The method, then: (§3) Beta-lactamase clinical samples were collected from University Hospitals Leuven and tested for ESBL production using the disk diffusion method. The beta-lactamase reference isolates were purchased from International Health Management Associates (IHMA). Bacterial strains were cultivated in Mueller–Hinton Broth (MHB, Difco) at 37 °C. Whenever required, growth media were supplemented with appropriate antibiotics to the medium or plates (kanamycin 30 µg/mL, L-arabinose 0.5 mg/mL, and IPTG […]). Escherichia coli BL21 (ThermoFisher Scientific, Belgium) was used for cloning and plasmid amplification. For the selection of antibiotic resistant colonies, E. coli carrying plasmids was grown in LB agar plates supplemented with the relevant antibiotic. Bacterial CFU counting was done on blood agar plates (BD Biosciences, Belgium) or MHA agar plates. Species identification and antibiograms for all clinical isolates were performed using MALDI-Tof and VITEK® 2 automated system (BioMérieux, France).
(§4) Khodaparast et al Supplementary data
(§5) study. […] Abbreviations: S,
(§6) susceptible; I, intermediate; R, resistant.

Data set [11] deals with E. coli NDM5a. Description: VITEK 2 AST antimicrobial susceptibility testing. It counts as cell-based, Escherichia coli. As for the experimental part:
as §3, §4, §5, §6

For data set [12], the system named is E. coli SHV1 (APHA). Description: VITEK 2 AST antimicrobial susceptibility testing. It counts as cell-based, Escherichia coli. As for the experimental part:
as §3, §4, §5, §6

The subject of data set [13] is E. coli TEM-148. Description: VITEK 2 AST antimicrobial susceptibility testing. Format: cell-based, Escherichia coli. The method, then: as §3, §4, §5, §6
Data set [14] has as its system E. coli TEM-206. Description: VITEK 2 AST antimicrobial susceptibility testing. Format: cell-based, Escherichia coli. To be noted: E. coli TEM-206. The method, then:
as §3, §4, §5, §6

In data set [15] the test system is E. coli TEM-104. Description: VITEK 2 AST antimicrobial susceptibility testing. Format: cell-based, Escherichia coli. As for the experimental part:
as §3, §4, §5, §6

The subject of data set [16] is E. coli NDM5b. Description: VITEK 2 AST antimicrobial susceptibility testing. It counts as cell-based, Escherichia coli. As for the experimental part: as §3, §4, §5, §6
Data set [17] concerns NDM-5. To be noted: ampicillin as substrate; cited from earlier work.
Data set [18] concerns E. coli TEM-30. It counts as cell-based, Escherichia coli. The method, then:
as §3, §4, §5, §6

Data set [19] deals with the molecule itself. Description: Thioflavin-T and pFTAA fluorescence kinetics + DLS + transmission electron microscopy; 50 μM TEM3.2 with polyphosphate (PolyP); electron microscopy after 24 h incubation at RT; the peptide is called soluble in buffer alone.
Where [20] appears, read: group Tazo, each column one mouse.

T2 sequence (P62593 24-286 limits assumed): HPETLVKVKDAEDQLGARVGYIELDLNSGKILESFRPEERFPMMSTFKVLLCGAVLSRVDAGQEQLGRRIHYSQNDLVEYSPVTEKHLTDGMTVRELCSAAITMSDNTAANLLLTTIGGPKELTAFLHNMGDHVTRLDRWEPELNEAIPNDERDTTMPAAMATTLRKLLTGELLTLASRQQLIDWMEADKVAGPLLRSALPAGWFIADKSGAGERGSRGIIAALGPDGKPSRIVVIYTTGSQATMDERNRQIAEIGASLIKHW
T1 sequence (P0AD64 22-286 L31Q): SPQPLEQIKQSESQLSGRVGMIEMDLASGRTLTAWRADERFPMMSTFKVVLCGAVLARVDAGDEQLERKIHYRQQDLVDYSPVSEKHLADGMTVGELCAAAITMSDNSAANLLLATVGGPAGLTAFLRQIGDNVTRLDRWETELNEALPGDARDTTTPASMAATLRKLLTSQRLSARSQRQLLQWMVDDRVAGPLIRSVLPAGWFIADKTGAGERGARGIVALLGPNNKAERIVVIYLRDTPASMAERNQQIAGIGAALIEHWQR

With `C[C@]1(Cn2ccnn2)[C@H](C(=O)O)N2C(=O)C[C@H]2S1(=O)=O` [Tazobactam, tazobactam sodium salt], the MIC penicillin in [1] (E. coli UZ_TEM104, concentration of additive 50 (mg/mL [sic])) turned out to be 400000 µg/mL. Also, the “fold reduction of the MIC of penicillin G” value in [1] (additive at 50 μg/mL) came to 4 fold. Further, in data set [1] (in the presence of additive (peptide or tazobactam) at fixed 50 μg/mL), the MIC penicillin was 400 µg/mL. The “effect on aggregation of SHV-11 during thermal denaturation (in words)” value in data set [2] is given as “a decrease in the aggregation of the protein”. Also, the “MIC Ampicillin in the presence of additive” value in [3] (32 μg/mL of either TEM3.2 or tazobactam) came to 25 µg/mL. Also, the “effect on aggregation of TEM-1 during thermal denaturation (in words)” value in data set [4] (excess of tazobactam, more marked for TEM-1 than SHV-11) is given as “a decrease in the aggregation of the protein”. Further, in data set [4] (static light scattering during temperature ramp, inhibitor titration), the “effect on aggregation of TEM-1, dose-response (in words)” value was “reduce the aggregation of the enzyme in a dose-responsive manner”. The Sum in [5] (G1 + G2, with molar excess of tazobactam (no tazo 10.40)) was found to be 10.28 kcal/mol. Moreover, the G2 in [5] (urea denaturation of TEM-1 with molar excess of tazobactam, 3-state fit, 3 replicates (no tazo 5.00)) is reported as 4.03 kcal/mol. For the same molecule, in data set [5] (urea denaturation of TEM-1 with molar excess of tazobactam, 3-state fit, 3 replicates (no tazo 5.40)), the G1 was determined as 6.25 kcal/mol. Further, the “best reduction of the bacterial load” value in [6] (10 mg/kg plus 30 mg/kg Ampicillin orally at 60 and 120 min post-infection, CFU at 24 h, most robust in kidney and ureter) is 1.8 log folds. Moreover, in data set [6] (setting [20]), the “bacterial load, Bladder” value is 26566.7 and 152667 and 97400 and 1 and 3700 and 1433.33 and 3000 and 1800 and 1966.67 and 316733 and 4266.67 and 3266.67; the “bacterial load, Kindey” value was 24000 and 134000 and 72733.3 and 633.333 and 1 (3×) and 10200 and 2066.67 and 17700 and 9833.33 and 4600; the “bacterial load, Ureters” value was 2433.33 and 54400 and 33133.3 and 133.333 and 166.667 and 1 (2×) and 1000 and 800 and 11633.3 and 1900 and 1166.67.
As usually defined, the Km is the substrate concentration at which the rate is half of its maximum. The MIC is the least concentration at which growth counts as inhibited. With `CC1(C)S[C@@H]2[C@H](NC(=O)[C@H](N)c3ccccc3)C(=O)N2[C@H]1C(=O)O` [Ampicillin], the Kcat in data set [7] is 955 s⁻¹; in data set [8], 37 s⁻¹; in [9] it was 1428 s⁻¹; in data set [17] it was 1912 s⁻¹. The Km in data set [7] is 395 µM; in data set [8], 917 µM; in [9], 50 µM; in data set [17], 118 µM. Moreover, the minimal inhibitory concentration (MIC) in data set [3] (Escherichia coli, no additive) came out at 1200 µg/mL. Besides, the Interoretation entry in data set [10] (E. coli TEM-16), in data set [11] (E. coli NDM5a), in data set [12] (E. coli SHV154), in [13] (E. coli TEM-148), in data set [14] and in [15] (E. coli TEM-104) was “R” in each case. In addition, the Interoretation entry in data set [16] (E. coli NDM5b) and in data set [18] (E. coli TEM-30) was “R” in each case. Further, the Interpretation entry in data set [10] (VITEK 2 AST card), in data set [11] (VITEK 2 AST card), in data set [12] (VITEK 2 AST card), in [13] (VITEK 2 AST card), in [15] (VITEK 2 AST card) and in [16] (VITEK 2 AST card) was “R” each time. The Interpretation entry in [18] (VITEK 2 AST card) is reported as “R”.

B1: Pept-In TEM3.2 (peptide)
peptide: Ac-RLTAFLHNRRPRLTAFLRQRR-NH2
notes: designed tandem of the TEM version (LTAFLHN) and the SHV version (LTAFLRQ) of APR 3, each flanked by Arg, with a Pro linker; also called peptide TEM3.2; source: synthetic peptide (Genscript, >90% purity; also in-house solid-phase synthesis)
For B1, the binding result in data set [19] is recorded as “binds”.
